ChEMBL document CHEMBL1136031, “8-Aryl xanthines potent inhibitors of phosphodiesterase 5” (Bioorg Med Chem Lett, 2002)
≈ marks a conversion by molar mass, not a printed value.

What was measured:
[1] = Ratio of IC50 against human platelet PDE5 to that against bovine retina PDE6
[2] = target: Phosphodiesterase 6; assay: Inhibitory concentration against bovine retina phosphodiesterase 6 activity; type: tissue-based
[3] = target: cGMP-specific 3',5'-cyclic phosphodiesterase (Homo sapiens, UniProt O76074); assay: Inhibitory activity against human platelet Phosphodiesterase 5 (PDE5)
[4] = target: Phosphodiesterase 3 (Homo sapiens, UniProt Q14432+Q13370); assay: Inhibition of human platelet Phosphodiesterase 3
[5] = target: Phosphodiesterase 1 (Bos taurus, UniProt Q01061+P14100); assay: Inhibition of bovine heart Phosphodiesterase 1 (PDE1); type: protein assay
[6] = system: Caco-2; assay: Caco-2 permeability as biopharmaceutical property; type: functional, cell-based; details: Homo sapiens
[7] = Kinetic solubility at pH 6.9, ca; type: physicochemical; details: buffer
[8] = Partition coefficient (logP); type: physicochemical; details: octanol/water
[9] = The pharmacokinetic property, Half-life in rat in vivo; type: ADME, organism-based
[10] = Volume in steady state distribution value was determined; type: ADME, organism-based; details: rat, in vivo; read-out: Vss
[11] = Bioavailability; type: ADME, organism-based; details: rat, in vivo; read-out: BAV
[12] = Kinetic solubility at pH 5.9; type: physicochemical; details: buffer
[13] = Log D value at pH 7.4; type: physicochemical; details: buffer
[14] = In vitro microsome metabolism clearance in human was determined; type: ADME; details: microsomes
[15] = The pharmacokinetic property, Half-life was determined; type: ADME, organism-based; details: rat, in vivo
[16] = Kinetic solubility at pH 5, ca; type: physicochemical; details: buffer
[17] = Kinetic solubility at pH 7.4, ca; type: physicochemical; details: buffer
[18] = In vitro microsome metabolism clearance in rat was determined; type: ADME; details: microsomes
[19] = system: Caco-2; assay: Caco 2 permeability is determined; type: functional, cell-based; details: Homo sapiens
[20] = species: Homo sapiens; assay: Caco-2 permeability was determined; type: ADME
[21] = Kinetic solubility at pH 7.4; type: physicochemical; details: buffer
[22] = Kinetic solubility at pH 5; type: physicochemical; details: caco-2, pH 5
[23] = Kinetic solubility at pH 5; ca; type: physicochemical; details: buffer
[24] = In vitro microsome metabolism clearance in human was determined; High; type: ADME; details: microsomes

Row | Ratio [1] | IC50 [2] | IC50 [3] | Structure (SMILES) | other results
1 | 0.5 | 0.003 µM |  | CCCOc1ccc(S(=O)(=O)N2CCN(CC)CC2)cc1-c1nc2c(=O)n(C)c(=O)n(CC(C)C)c2[nH]1 | 
2 | 1.1 | 0.102 µM |  | CC(C)COc1ccc(S(=O)(=O)N2CCN(C)CC2)cc1-c1nc2c(=O)n(C)c(=O)n(CC(C)C)c2[nH]1 | 
3 |  |  | 0.315 µM | CCOc1ccc(S(=O)(=O)N2CCN(C)CC2)cc1-c1nc2c(=O)[nH]c(=O)n(CC(C)C)c2[nH]1 | IC50 [4]: > 10 µM; IC50 [5]: > 10 µM
4 |  |  | > 10 µM | CCOc1ccc(S(=O)(=O)N2CCN(C)CC2)cc1-c1nc2c([nH]1)c(=O)[nH]c(=O)n2C | 
5 |  |  | 0.0055 µM | CCCOc1ccc(S(=O)(=O)N2CCN(CC)CC2)cc1-c1nc2c([nH]1)c(=O)n(C)c(=O)n2CC(C)C | 
6 | 1.4 | 0.087 µM | 0.06 µM | CCCOc1ccccc1-c1nc2c(=O)n(C)c(=O)n(CC(C)C)c2[nH]1 | 
7 |  |  | 0.105 µM | CC(C)COc1ccccc1-c1nc2c([nH]1)c(=O)n(C)c(=O)n2CC(C)C | 
8 |  | 0.217 µM | 0.028 µM | CCOc1ccc(S(=O)(=O)N2CCN(C)CC2)cc1-c1nc2c(=O)n(C)c(=O)n(CC3CC3)c2[nH]1 | IC50 [4]: > 10 µM; IC50 [5]: > 10 µM
9 | 5.5 | 0.017 µM |  | CCCOc1ccc(S(=O)(=O)N2CCC(CCO)CC2)cc1-c1nc2c(=O)n(C)c(=O)n(CC(C)C)c2[nH]1 | Papp [6]: 13.2 ×10⁻⁶ cm/s
10 | 0.6 | 0.006 µM | 0.01 µM | CCCOc1ccc(S(=O)(=O)N2CCN(C)CC2)cc1-c1nc2c(=O)n(C)c(=O)n(CC(C)C)c2[nH]1 | 
11 | 3.1 | 0.227 µM | 0.073 µM | CCOc1ccccc1-c1nc2c(=O)n(C)c(=O)n(CC(C)C)c2[nH]1 | 
12 | 4 | 0.015 µM | 0.0035 µM | CCCOc1ccc(S(=O)(=O)N2CCN(CCO)CC2)cc1-c1nc2c(=O)n(C)c(=O)n(CC(C)C)c2[nH]1 | 
13 |  |  | > 10 µM | CC(C)Cn1c(=O)n(C)c(=O)c2[nH]c(-c3ccccc3OCc3ccccc3)nc21 | 
14 | 5 | 0.077 µM | 0.016 µM | CC(C)Cn1c(=O)n(C)c(=O)c2[nH]c(-c3cc(S(=O)(=O)N4CCN(C)CC4)ccc3OC(C)C)nc21 | 
15 |  |  | > 10 µM | CC(C)Cn1c(=O)n(C)c(=O)c2[nH]c(-c3ccccc3O)nc21 | 
16 | 3 | 0.016 µM |  | CCCOc1ccc(S(N)(=O)=O)cc1-c1nc2c(=O)n(C)c(=O)n(CC(C)C)c2[nH]1 | 
17 |  |  | 0.13 µM | CCCCCCn1c(=O)n(C)c(=O)c2[nH]c(-c3cc(S(=O)(=O)N4CCN(C)CC4)ccc3OCC)nc21 | 
18 |  |  |  | CCOc1ccc(S(=O)(=O)N2CCN(C)CC2)cc1-c1nc2c([nH]1)c(=O)n(C)c(=O)n2CC(C)C | solubility kinetic [7]: 30 µg/mL (≈ 59.5 µM); logP [8]: 3.26; half-life [9]: 1.53 h; Vd [10]: 9.7 L/kg; bioavailability [11]: 11%; solubility kinetic [12]: > 160 µg/mL; logD [13]: 3.15
19 |  |  | 0.019 µM | CCOc1ccc(S(=O)(=O)N2CCN(CCO)CC2)cc1-c1nc2c([nH]1)c(=O)n(C)c(=O)n2CC(C)C | 
20 |  | 1.21 µM | 0.059 µM | CCOc1ccc(S(=O)(=O)N2CCN(C)CC2)cc1-c1nc2c(=O)n(C)c(=O)n(Cc3ccc(OC)cc3)c2[nH]1 | IC50 [4]: > 10 µM; IC50 [5]: 4.52 µM
21 |  |  | 0.026 µM | CCOc1ccc(S(=O)(=O)N2CCN(CC)CC2)cc1-c1nc2c([nH]1)c(=O)n(C)c(=O)n2CC(C)C | 
22 | 4 | 0.014 µM | 0.0035 µM | CCCOc1ccc(S(=O)(=O)N2CCN(C(=O)N(C)C)CC2)cc1-c1nc2c(=O)n(C)c(=O)n(CC(C)C)c2[nH]1 | microsomal CLint [14]: 71 µL/min/mg; half-life [15]: 0.367 h; logP [8]: 4.04; Vd [10]: 3.4 L/kg; bioavailability [11]: 0%; solubility kinetic [16]: 25 µg/mL (≈ 43.4 µM); Papp [6]: 22.9 ×10⁻⁶ cm/s; solubility kinetic [17]: 25 µg/mL (≈ 43.4 µM); microsomal CLint [18]: 185 µL/min/mg
23 | 1.5 | 0.037 µM |  | CCCOc1ccc(S(=O)(=O)N2CCN(CCN(C)C)CC2)cc1-c1nc2c(=O)n(C)c(=O)n(CC(C)C)c2[nH]1 | 
24 | 22 | 0.242 µM | 0.011 µM | CCCOc1ccc(S(=O)(=O)N(CC)CCN(C)C)cc1-c1nc2c(=O)n(C)c(=O)n(CC(C)C)c2[nH]1 | 
25 | 2.5 | 0.146 µM |  | CCOc1ccc(S(=O)(=O)N2CCN(CCN(C)C)CC2)cc1-c1nc2c(=O)n(C)c(=O)n(CC(C)C)c2[nH]1 | 
26 | 0.7 | 0.073 µM |  | CC(C)COc1ccccc1-c1nc2c(=O)n(C)c(=O)n(CC(C)C)c2[nH]1 | 

Row | Ratio [1] | IC50 [2] | IC50 [3] | Structure (SMILES) | other results
27 |  |  | 5.42 µM | CSc1ccccc1-c1nc2c(=O)n(C)c(=O)n(CC(C)C)c2[nH]1 | 
28 | 4.9 | 0.1 µM |  | CCOc1ccc(S(=O)(=O)N2CCN(C)CC2)cc1-c1nc2c(=O)n(C)c(=O)n(CC(C)C)c2[nH]1 | Papp [19]: 25 ×10⁻⁶ cm/s; IC50 [4]: > 10 µM; IC50 [5]: 3.38 µM
29 |  | 0.083 µM | 0.009 µM | CCOc1ccc(S(=O)(=O)N2CCN(C)CC2)cc1-c1nc2c(=O)n(C)c(=O)n(CC(C)CC)c2[nH]1 (stereo not given) | microsomal CLint [14]: 114 µL/min/mg; half-life [15]: 1.53 h; Papp [20]: 34.5 ×10⁻⁶ cm/s; logP [8]: 3.81; Vd [10]: 9.7 L/kg; bioavailability [11]: 11%; solubility kinetic [21]: 100 µg/mL (≈ 193 µM); IC50 [4]: 6.03 µM; IC50 [5]: > 10 µM; solubility kinetic [22]: > 200 µg/mL; microsomal CLint [18]: 178 µL/min/mg
30 | 3.2 | 0.436 µM |  | CCCCOc1ccccc1-c1nc2c(=O)n(C)c(=O)n(CC(C)C)c2[nH]1 | 
31 |  |  | 0.012 µM | CCCOc1ccc(S(=O)(=O)N2CCN(CCOC)CC2)cc1-c1nc2c([nH]1)c(=O)n(C)c(=O)n2CC(C)C | 
32 |  |  | 0.063 µM | CCOc1ccc(S(=O)(=O)N2CCN(CCN(C)C)CC2)cc1-c1nc2c([nH]1)c(=O)n(C)c(=O)n2CC(C)C | 
33 | 7.5 | 0.091 µM |  | CCCOc1ccc(S(=O)(=O)N2CCN(CCOC)CC2)cc1-c1nc2c(=O)n(C)c(=O)n(CC(C)C)c2[nH]1 | 
34 |  |  | 0.551 µM | CCCCCOc1ccccc1-c1nc2c([nH]1)c(=O)n(C)c(=O)n2CC(C)C | 
35 |  |  | 0.16 µM | CCOc1ccc(S(=O)(=O)N2CCN(C)CC2)cc1-c1nc2c(=O)n(C)c(=O)n(CC3CCCCC3)c2[nH]1 | 
36 |  |  | 0.005 µM | CCCOc1ccc(S(N)(=O)=O)cc1-c1nc2c([nH]1)c(=O)n(C)c(=O)n2CC(C)C | 
37 | 3.5 | 0.068 µM |  | CCOc1ccc(S(=O)(=O)N2CCN(CCO)CC2)cc1-c1nc2c(=O)n(C)c(=O)n(CC(C)C)c2[nH]1 | 
38 | 72 | 1.15 µM | 0.016 µM | CCCOc1ccc(S(=O)(=O)N(C)CCN(C)C)cc1-c1nc2c(=O)n(C)c(=O)n(CC(C)C)c2[nH]1 | logP [8]: 4.9; Papp [6]: 0.3 ×10⁻⁶ cm/s
39 |  | 0.345 µM | 0.1 µM | CCCn1c(=O)n(C)c(=O)c2[nH]c(-c3cc(S(=O)(=O)N4CCN(C)CC4)ccc3OCC)nc21 | 
40 | 2.8 | 0.214 µM | 0.077 µM | CC(C)Cn1c(=O)n(C)c(=O)c2[nH]c(-c3ccccc3OC(C)C)nc21 | 
41 | 7.5 | 0.203 µM |  | CCOc1ccc(S(=O)(=O)N2CCN(CC)CC2)cc1-c1nc2c(=O)n(C)c(=O)n(CC(C)C)c2[nH]1 | 
42 |  |  | > 10 µM | CNc1ccccc1-c1nc2c([nH]1)c(=O)n(C)c(=O)n2CC(C)C | 
43 |  |  | 0.003 µM | CCCOc1ccc(S(=O)(=O)N2CCC(CCO)CC2)cc1-c1nc2c([nH]1)c(=O)n(C)c(=O)n2CC(C)C | solubility kinetic [23]: 5 µg/mL (≈ 9.13 µM); logP [8]: 3.67; bioavailability [11]: 0%; Cl [24]: High; solubility kinetic [17]: 5 µg/mL (≈ 9.13 µM); microsomal CLint [18]: 226 µL/min/mg
44 |  |  | 1.5 µM | COCCOc1ccccc1-c1nc2c([nH]1)c(=O)n(C)c(=O)n2CC(C)C | 
45 |  |  | > 10 µM | CC(C)Cn1c(=O)n(C)c(=O)c2[nH]c(-c3ccccc3F)nc21 | 
46 |  |  | > 10 µM | CC(C)Cn1c(=O)n(C)c(=O)c2[nH]c(-c3ccccc3)nc21 | 
47 |  |  | > 10 µM | CC(C)Cn1c(=O)n(C)c(=O)c2[nH]c(-c3ccccc3N(C)C)nc21 | 
48 |  |  | 0.135 µM | CCCCOc1ccccc1-c1nc2c([nH]1)c(=O)n(C)c(=O)n2CC(C)C | 
49 |  |  | 0.024 µM | CCCOc1ccc(S(=O)(=O)N2CCN(CCN(C)C)CC2)cc1-c1nc2c([nH]1)c(=O)n(C)c(=O)n2CC(C)C | 
50 |  | 2.38 µM | 0.091 µM | CCOc1ccc(S(=O)(=O)N2CCN(C)CC2)cc1-c1nc2c(=O)n(C)c(=O)n(CC(C)(C)C)c2[nH]1 | IC50 [4]: 5.57 µM
51 |  |  | 0.093 µM | CC(C)COc1ccc(S(=O)(=O)N2CCN(C)CC2)cc1-c1nc2c([nH]1)c(=O)n(C)c(=O)n2CC(C)C | 
52 |  | 5.6 µM | 0.1 µM | C=CCCn1c(=O)n(C)c(=O)c2nc(-c3cc(S(=O)(=O)N4CCN(C)CC4)ccc3OCC)[nH]c21 | IC50 [4]: > 10 µM; IC50 [5]: > 10 µM
